Legend:
[1] = Cytotoxicity against mouse B16F10 cells assessed as cell viability at 10 uM after 48 hrs by MTT assay; type: cell-based, B16-F10; settings: read-out: Activity
[2] = system: B16-F10; test: Inhibition of melanogenesis in mouse B16F10 cells assessed as melanin content at 10 uM after 24 hrs in presence of alpha-MSH (reference value: 241.87%); type: functional; set-up: scale not given: the % may be the effect or the level left
[3] = system: B16-F10; test: Inhibition of melanogenesis in mouse B16F10 cells assessed as decrease in melanin content after 24 hrs in presence of alpha-MSH; type: functional, cell-based
[4] = Cytotoxicity against mouse B16F10 cells assessed as cell viability at 1 uM after 48 hrs by MTT assay; type: cell-based, B16-F10; settings: read-out: Activity
[5] = target: T1, Tyrosinase (Mus musculus) (UniProt P11344); test: Inhibition of tyrosinase in mouse B16F10 cells assessed as rate of L-DOPA oxidation at 5 uM after 24 hrs by ELISA in presence of alpha-MSH (reference value: […]%); type: cell-based; set-up: scale not given: the % may be the effect or the level left; settings: B16-F10
T1 sequence (whole entry): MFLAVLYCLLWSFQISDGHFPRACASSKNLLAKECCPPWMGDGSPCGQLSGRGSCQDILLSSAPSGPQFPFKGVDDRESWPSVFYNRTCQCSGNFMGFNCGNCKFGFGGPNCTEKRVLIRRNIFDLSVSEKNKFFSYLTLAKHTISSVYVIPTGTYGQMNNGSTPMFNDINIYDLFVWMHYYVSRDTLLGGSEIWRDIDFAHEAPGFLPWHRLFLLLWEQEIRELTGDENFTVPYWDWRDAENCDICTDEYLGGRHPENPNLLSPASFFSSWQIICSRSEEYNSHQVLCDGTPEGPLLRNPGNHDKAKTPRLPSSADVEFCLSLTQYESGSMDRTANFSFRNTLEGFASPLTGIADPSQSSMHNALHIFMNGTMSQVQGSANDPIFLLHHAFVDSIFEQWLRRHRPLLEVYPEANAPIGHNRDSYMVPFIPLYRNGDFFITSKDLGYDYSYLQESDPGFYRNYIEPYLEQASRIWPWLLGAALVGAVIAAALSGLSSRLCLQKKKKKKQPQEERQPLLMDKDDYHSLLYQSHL

[6] = Cytotoxicity against mouse B16F10 cells assessed as cell viability at 5 uM after 48 hrs by MTT assay; type: cell-based, B16-F10; settings: read-out: Activity
[7] = system: B16-F10; test: Inhibition of melanogenesis in mouse B16F10 cells assessed as melanin content at 1 uM after 24 hrs in presence of alpha-MSH (reference value: 241.87%); type: functional; set-up: scale not given: the % may be the effect or the level left
[8] = target: T1, Tyrosinase (Mus musculus); test: Inhibition of tyrosinase in mouse B16F10 cells assessed as rate of L-DOPA oxidation at 0.2 uM after 24 hrs by ELISA in presence of alpha-MSH (reference value: […]%); type: cell-based; set-up: scale not given: the % may be the effect or the level left; settings: B16-F10
[9] = system: B16-F10; test: Inhibition of melanogenesis in mouse B16F10 cells assessed as melanin content at 0.2 uM after 24 hrs in presence of alpha-MSH (reference value: 241.87%); type: functional; set-up: scale not given: the % may be the effect or the level left
[10] = target: T2, Tyrosinase (Agaricus bisporus, UniProt O42713); test: Competitive inhibition of mushroom tyrosinase assessed as decrease in rate of dopachrome formation using L-tyrosine as substrate at 1.25 uM by Lineweaver-Burk plot analysis
T2 sequence (O42713 whole entry): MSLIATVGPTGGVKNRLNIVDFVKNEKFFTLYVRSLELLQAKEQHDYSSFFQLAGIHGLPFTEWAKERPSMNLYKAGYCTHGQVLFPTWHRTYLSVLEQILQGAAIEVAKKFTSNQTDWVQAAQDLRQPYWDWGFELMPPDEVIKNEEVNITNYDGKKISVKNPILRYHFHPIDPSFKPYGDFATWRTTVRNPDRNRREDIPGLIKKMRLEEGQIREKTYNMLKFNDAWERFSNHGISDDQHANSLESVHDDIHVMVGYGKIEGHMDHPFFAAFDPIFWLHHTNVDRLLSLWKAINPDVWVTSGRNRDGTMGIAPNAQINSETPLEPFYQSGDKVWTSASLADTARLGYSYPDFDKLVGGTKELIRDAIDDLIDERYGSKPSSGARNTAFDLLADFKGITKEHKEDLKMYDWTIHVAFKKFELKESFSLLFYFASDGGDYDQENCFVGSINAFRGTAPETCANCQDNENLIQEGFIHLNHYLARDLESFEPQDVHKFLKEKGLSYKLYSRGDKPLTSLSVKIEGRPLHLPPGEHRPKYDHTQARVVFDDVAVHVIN

[11] = target: T2, Tyrosinase; test: Inhibition of mushroom tyrosinase assessed as decrease in dopachrome production using L-tyrosine as substrate by spectrophotometric analysis
[12] = target: T1, Tyrosinase (Mus musculus); test: Inhibition of tyrosinase in mouse B16F10 cells assessed as rate of L-DOPA oxidation at 10 uM after 24 hrs by ELISA in presence of alpha-MSH (reference value: […]%); type: cell-based; set-up: scale not given: the % may be the effect or the level left; settings: B16-F10
[13] = target: T2, Tyrosinase; test: Competitive inhibition of mushroom tyrosinase assessed as decrease in rate of dopachrome formation using L-tyrosine as substrate at 20 uM by Lineweaver-Burk plot analysis
[14] = Cytotoxicity against mouse B16F10 cells assessed as cell viability at 0.2 uM after 48 hrs by MTT assay; type: cell-based, B16-F10; settings: read-out: Activity
[15] = target: T1, Tyrosinase (Mus musculus); test: Inhibition of tyrosinase in mouse B16F10 cells assessed as rate of L-DOPA oxidation at 1 uM after 24 hrs by ELISA in presence of alpha-MSH (reference value: […]%); type: cell-based; set-up: scale not given: the % may be the effect or the level left; settings: B16-F10
[16] = system: B16-F10; test: Inhibition of melanogenesis in mouse B16F10 cells assessed as melanin content at 2.5 uM after 24 hrs in presence of alpha-MSH (reference value: 241.87%); type: functional; set-up: scale not given: the % may be the effect or the level left
[17] = system: B16-F10; test: Inhibition of melanogenesis in mouse B16F10 cells assessed as melanin content at 5 uM after 24 hrs in presence of alpha-MSH (reference value: 241.87%); type: functional; set-up: scale not given: the % may be the effect or the level left
[18] = target: T1, Tyrosinase (Mus musculus); test: Inhibition of tyrosinase in mouse B16F10 cells assessed as rate of L-DOPA oxidation at 2.5 uM after 24 hrs by ELISA in presence of alpha-MSH (reference value: […]%); type: cell-based; set-up: scale not given: the % may be the effect or the level left; settings: B16-F10
[19] = Cytotoxicity against mouse B16F10 cells assessed as cell viability at 2.5 uM after 48 hrs by MTT assay; type: cell-based, B16-F10; settings: read-out: Activity

Activity [5]: 101%
Activity [8]: 224%
Ki [10]: 0.424 µM
IC50 [11]: 2.23 µM
Activity [12]: 97.1%
Ki [13]: 1.82 µM
Activity [15]: 177%
Activity [18]: 103%
SMILES: COc1ccc(/C=C2\CC(=O)NC2=O)cc1O
viability at 48 h, 10 µM [1]: 97.8%
Activity [2]: 99.49%
inhibition [3]: Dose-dependent effect
viability at 48 h, 1 µM [4]: 98.9%
viability at 48 h, 5 µM [6]: 98.1%
Activity [7]: 231.69%
Activity [9]: 236.67%
viability at 48 h, 0.2 µM [14]: 99.5%
Activity [16]: 113.11%
Activity [17]: 103.74%
viability at 48 h, 2.5 µM [19]: 98.4%
